Test results published in patent publication US11117892B2, “Pyrrolo-pyridine derivative compound, method for preparing same, and pharmaceutical composition containing same as active ingredient for prevention or treatment of protein kinase-related diseases” (DAEGU-GYEONGBUK MEDICAL INNOVATION FOUNDATION, priority 2017, dated 2021).

Assays:
Assay in all cases: scanMAX Kinase assay panel
Format in all cases: binding
Conditions in all cases: read-out: % control
FAK = FAK (Homo sapiens (Human), UniProt Q05397)
Method: (§1) DiscoverX Co. was asked to measure the enzyme (kinase) selectivity, and the experiment was performed using scanMAX™ Kinase assay panel.
(§2) (Example Compound−Positive Control)/(Negative Control−Positive Control)×100 [Equation 1]
(§3) Herein, the positive control indicates the compound showing the % control of 0%, and the negative control indicates DMSO showing the % control of 100%.

EIF2AK1 = EIF2AK1 (Homo sapiens (Human), UniProt Q9BQI3)
Method: as §1, §2, §3

[1] = target: ABL1(H396P)-nonphosphorylated (Homo sapiens (Human), UniProt P00519, H396P)
Method: as §1, §2, §3

VEGFR2 = VEGFR2 (Homo sapiens (Human), UniProt P35968)
Method: as §1, §2, §3

[2] = target: RSK1(Kin.Dom.1-N-terminal) (Homo sapiens (Human), UniProt Q15418)
Method: as §1, §2, §3

PIK3C2G = PIK3C2G (Homo sapiens (Human), UniProt O75747)
Method: as §1, §2, §3

MAP3K2 = MAP3K2 (Homo sapiens (Human), UniProt Q9Y2U5)
Method: as §1, §2, §3

CSNK2A1 = CSNK2A1 (Homo sapiens (Human), UniProt P68400)
Method: as §1, §2, §3

RET(V804M) = RET(V804M) (Homo sapiens (Human), UniProt P07949, V804M)
Method: as §1, §2, §3

INSR = INSR (Homo sapiens (Human), UniProt P06213)
Method: as §1, §2, §3

MAST1 = MAST1 (Homo sapiens (Human), UniProt Q9Y2H9)
Method: as §1, §2, §3

MEK4 = MEK4 (Homo sapiens (Human), UniProt P45985)
Method: as §1, §2, §3

S6K1 = S6K1 (Homo sapiens (Human), UniProt P23443)
Method: as §1, §2, §3

SgK110 = SgK110 (Homo sapiens (Human), UniProt P0C264)
Method: as §1, §2, §3

[3] = target: RSK1(Kin.Dom.2-C-terminal) (Homo sapiens (Human), UniProt Q15418)
Method: as §1, §2, §3

PIM1 = PIM1 (Homo sapiens (Human), UniProt P11309)
Method: as §1, §2, §3

AKT3 = AKT3 (Homo sapiens (Human), UniProt Q9Y243)
Method: as §1, §2, §3

TRKB = TRKB (Homo sapiens (Human), UniProt Q16620)
Method: as §1, §2, §3

KIT(A829P) = KIT(A829P) (Homo sapiens (Human), UniProt P10721, A829P)
Method: as §1, §2, §3

EGFR(L858R) = EGFR(L858R) (Homo sapiens (Human), UniProt P00533, L858R)
Method: as §1, §2, §3

GRK1 = GRK1 (Homo sapiens (Human), UniProt Q15835)
Method: as §1, §2, §3

STK39 = STK39 (Homo sapiens (Human), UniProt Q9UEW8)
Method: as §1, §2, §3

SRPK1 = SRPK1 (Homo sapiens (Human), UniProt Q96SB4)
Method: as §1, §2, §3

MARK3 = MARK3 (Homo sapiens (Human), UniProt P27448)
Method: as §1, §2, §3

FER = FER (Homo sapiens (Human), UniProt P16591)
Method: as §1, §2, §3

[4] = target: ABL1(T315I)-nonphosphorylated (Homo sapiens (Human), UniProt P00519, T315I)
Method: as §1, §2, §3

KIT(V559D) = KIT(V559D) (Homo sapiens (Human), UniProt P10721, V559D)
Method: as §1, §2, §3

ERBB2 = ERBB2 (Homo sapiens (Human), UniProt P04626)
Method: as §1, §2, §3

SRPK3 = SRPK3 (Homo sapiens (Human), UniProt Q9UPE1)
Method: as §1, §2, §3

GRK2 = GRK2 (Homo sapiens (Human), UniProt P25098)
Method: as §1, §2, §3

AURKC = AURKC (Homo sapiens (Human), UniProt Q9UQB9)
Method: as §1, §2, §3

EPHA5 = EPHA5 (Homo sapiens (Human), UniProt P54756)
Method: as §1, §2, §3

JNK2 = JNK2 (Homo sapiens (Human), UniProt P45984)
Method: as §1, §2, §3

DRAK1 = DRAK1 (Homo sapiens (Human), UniProt Q9UEE5)
Method: as §1, §2, §3

ERK1 = ERK1 (Homo sapiens (Human), UniProt P27361)
Method: as §1, §2, §3

GRK7 = GRK7 (Homo sapiens (Human), UniProt Q8WTQ7)
Method: as §1, §2, §3

DDR1 = DDR1 (Homo sapiens (Human), UniProt Q08345)
Method: as §1, §2, §3

MAP4K5 = MAP4K5 (Homo sapiens (Human), UniProt Q9Y4K4)
Method: as §1, §2, §3

Sequence of SRPK3 (Q9UPE1 whole entry): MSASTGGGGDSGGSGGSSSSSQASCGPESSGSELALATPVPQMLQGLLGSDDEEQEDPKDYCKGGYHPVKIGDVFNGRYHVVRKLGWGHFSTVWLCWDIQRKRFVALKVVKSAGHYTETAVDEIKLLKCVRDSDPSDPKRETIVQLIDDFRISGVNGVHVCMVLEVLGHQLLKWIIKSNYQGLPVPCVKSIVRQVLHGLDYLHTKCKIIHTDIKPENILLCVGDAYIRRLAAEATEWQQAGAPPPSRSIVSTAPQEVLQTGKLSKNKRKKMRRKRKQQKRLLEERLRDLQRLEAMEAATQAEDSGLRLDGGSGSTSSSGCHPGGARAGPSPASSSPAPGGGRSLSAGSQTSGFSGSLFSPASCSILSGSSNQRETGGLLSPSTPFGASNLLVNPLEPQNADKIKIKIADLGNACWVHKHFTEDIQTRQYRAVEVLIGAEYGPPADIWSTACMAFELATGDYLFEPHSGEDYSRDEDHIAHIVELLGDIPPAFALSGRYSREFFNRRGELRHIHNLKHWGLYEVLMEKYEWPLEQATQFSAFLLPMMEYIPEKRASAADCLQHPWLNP
Sequence of ERK1 (P27361 whole entry): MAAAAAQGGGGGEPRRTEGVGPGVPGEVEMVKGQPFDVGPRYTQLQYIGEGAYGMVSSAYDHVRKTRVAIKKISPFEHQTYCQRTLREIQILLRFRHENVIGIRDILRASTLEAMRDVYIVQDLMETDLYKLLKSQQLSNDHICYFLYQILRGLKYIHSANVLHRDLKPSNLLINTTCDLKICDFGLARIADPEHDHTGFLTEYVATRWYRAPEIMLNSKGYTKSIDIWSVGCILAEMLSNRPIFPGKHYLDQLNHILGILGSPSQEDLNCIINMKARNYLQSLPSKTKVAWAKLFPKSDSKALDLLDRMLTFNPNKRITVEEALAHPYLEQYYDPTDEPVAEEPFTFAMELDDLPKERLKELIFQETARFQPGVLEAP
Sequence of EGFR(L858R) (P00533 25-1210 L858R): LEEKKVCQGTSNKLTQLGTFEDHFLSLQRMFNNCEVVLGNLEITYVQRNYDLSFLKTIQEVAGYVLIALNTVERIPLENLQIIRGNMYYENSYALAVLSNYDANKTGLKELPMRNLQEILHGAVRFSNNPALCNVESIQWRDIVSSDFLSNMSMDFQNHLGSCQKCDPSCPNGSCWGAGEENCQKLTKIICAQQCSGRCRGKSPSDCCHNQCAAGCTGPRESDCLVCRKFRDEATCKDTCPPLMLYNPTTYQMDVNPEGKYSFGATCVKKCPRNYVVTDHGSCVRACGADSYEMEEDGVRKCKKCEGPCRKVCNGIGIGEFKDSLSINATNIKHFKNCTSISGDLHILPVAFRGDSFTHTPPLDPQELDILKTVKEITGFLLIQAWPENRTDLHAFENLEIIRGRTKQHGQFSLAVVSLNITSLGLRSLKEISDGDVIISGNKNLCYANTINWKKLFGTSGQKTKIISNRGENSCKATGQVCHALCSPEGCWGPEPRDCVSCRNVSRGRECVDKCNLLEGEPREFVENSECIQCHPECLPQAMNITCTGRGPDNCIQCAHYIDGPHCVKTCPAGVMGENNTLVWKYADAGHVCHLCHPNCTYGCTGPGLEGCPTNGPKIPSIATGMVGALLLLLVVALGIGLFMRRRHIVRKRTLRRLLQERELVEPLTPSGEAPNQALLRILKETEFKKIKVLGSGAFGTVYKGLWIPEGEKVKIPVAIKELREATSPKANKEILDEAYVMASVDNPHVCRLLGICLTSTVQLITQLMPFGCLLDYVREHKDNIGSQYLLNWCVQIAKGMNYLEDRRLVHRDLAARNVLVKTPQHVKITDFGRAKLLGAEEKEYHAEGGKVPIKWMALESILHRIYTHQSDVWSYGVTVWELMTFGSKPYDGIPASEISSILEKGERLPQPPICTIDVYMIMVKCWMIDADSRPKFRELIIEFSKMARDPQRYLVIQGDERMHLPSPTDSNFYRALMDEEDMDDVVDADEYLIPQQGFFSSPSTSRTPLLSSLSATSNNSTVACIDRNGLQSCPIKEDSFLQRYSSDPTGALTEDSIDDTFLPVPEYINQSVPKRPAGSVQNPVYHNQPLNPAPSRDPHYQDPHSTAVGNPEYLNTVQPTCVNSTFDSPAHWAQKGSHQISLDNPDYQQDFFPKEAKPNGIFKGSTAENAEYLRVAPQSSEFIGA
Sequence of RET(V804M) (P07949 29-1114 V804M): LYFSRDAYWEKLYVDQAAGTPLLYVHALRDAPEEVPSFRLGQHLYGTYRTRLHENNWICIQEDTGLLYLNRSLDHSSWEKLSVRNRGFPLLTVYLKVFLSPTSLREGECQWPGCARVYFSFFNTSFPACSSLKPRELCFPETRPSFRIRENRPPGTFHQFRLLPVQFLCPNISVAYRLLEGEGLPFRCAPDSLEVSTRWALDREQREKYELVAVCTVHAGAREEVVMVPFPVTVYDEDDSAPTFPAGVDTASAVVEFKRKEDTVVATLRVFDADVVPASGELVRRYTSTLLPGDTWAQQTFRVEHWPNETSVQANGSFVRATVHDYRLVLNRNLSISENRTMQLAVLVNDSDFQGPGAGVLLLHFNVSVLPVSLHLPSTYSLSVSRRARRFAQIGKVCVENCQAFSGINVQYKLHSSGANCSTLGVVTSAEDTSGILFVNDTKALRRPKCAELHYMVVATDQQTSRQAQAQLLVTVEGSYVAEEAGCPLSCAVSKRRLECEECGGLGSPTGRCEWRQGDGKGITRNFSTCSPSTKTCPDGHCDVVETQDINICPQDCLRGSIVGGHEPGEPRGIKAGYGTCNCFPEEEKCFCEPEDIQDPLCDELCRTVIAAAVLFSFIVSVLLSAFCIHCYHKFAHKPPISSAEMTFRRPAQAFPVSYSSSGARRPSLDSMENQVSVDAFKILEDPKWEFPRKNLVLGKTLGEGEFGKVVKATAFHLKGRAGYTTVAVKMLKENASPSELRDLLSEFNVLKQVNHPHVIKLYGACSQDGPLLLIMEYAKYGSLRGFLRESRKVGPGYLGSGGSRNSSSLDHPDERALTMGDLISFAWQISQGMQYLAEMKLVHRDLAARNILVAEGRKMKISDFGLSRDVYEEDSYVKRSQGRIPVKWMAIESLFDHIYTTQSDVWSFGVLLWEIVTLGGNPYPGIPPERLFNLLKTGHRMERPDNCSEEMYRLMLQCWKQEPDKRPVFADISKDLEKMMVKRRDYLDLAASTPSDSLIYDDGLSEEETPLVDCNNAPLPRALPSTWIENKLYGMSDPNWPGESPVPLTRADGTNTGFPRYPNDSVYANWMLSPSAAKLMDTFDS
Sequence of MEK4 (P45985 whole entry): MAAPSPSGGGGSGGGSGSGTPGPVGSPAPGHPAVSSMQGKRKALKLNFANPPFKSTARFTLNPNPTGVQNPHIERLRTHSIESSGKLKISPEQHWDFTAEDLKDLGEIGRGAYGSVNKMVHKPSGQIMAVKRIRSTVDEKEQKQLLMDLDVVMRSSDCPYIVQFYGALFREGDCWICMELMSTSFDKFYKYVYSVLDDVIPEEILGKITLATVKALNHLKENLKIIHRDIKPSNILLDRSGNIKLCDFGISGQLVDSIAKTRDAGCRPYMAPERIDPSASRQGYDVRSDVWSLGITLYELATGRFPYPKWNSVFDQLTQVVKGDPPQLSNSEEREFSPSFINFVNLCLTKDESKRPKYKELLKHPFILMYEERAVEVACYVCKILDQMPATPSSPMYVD
Sequence of FAK (Q05397 whole entry): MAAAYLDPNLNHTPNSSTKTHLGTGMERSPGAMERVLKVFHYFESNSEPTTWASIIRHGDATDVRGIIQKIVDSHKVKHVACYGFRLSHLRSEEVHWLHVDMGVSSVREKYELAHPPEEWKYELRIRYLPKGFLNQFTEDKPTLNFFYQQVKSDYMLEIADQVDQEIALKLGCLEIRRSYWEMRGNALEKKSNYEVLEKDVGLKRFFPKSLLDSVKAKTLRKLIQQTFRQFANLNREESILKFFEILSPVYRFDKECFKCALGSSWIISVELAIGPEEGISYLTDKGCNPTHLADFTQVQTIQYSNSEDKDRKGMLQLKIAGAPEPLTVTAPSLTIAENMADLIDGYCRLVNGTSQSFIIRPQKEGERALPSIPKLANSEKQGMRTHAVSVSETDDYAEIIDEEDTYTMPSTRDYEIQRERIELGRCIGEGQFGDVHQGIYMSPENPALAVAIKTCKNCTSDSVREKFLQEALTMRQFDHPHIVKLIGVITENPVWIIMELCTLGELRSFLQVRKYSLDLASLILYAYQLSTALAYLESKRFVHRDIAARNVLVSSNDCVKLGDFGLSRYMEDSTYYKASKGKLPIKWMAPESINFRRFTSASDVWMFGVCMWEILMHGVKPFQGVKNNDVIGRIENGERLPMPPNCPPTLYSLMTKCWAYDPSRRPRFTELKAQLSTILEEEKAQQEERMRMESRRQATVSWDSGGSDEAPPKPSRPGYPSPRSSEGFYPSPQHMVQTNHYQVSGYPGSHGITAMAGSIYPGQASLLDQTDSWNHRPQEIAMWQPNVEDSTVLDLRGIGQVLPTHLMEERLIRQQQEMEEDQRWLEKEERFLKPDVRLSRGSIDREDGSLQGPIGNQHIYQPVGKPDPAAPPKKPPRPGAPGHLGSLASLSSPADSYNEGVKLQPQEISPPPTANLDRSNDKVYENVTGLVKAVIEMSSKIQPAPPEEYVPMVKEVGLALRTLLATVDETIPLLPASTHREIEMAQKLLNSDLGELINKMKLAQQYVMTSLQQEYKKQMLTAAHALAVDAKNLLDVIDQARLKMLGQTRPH
Sequence of RSK1(Kin.Dom.2-C-terminal) (Q15418 418-675): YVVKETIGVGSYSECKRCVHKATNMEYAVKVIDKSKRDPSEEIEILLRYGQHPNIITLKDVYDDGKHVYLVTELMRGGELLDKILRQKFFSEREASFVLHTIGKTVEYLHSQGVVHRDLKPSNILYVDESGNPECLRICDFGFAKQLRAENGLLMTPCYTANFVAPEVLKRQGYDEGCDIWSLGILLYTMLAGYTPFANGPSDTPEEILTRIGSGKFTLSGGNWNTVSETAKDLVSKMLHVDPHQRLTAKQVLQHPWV

Structure (SMILES)	remaining binding at 1 µM (FAK) [%]	remaining binding at 1 µM (EIF2AK1) [%]	remaining binding at 1 µM [1] [%]	remaining binding at 1 µM (VEGFR2) [%]	remaining binding at 1 µM [2] [%]	remaining binding at 1 µM (PIK3C2G) [%]	remaining binding at 1 µM (MAP3K2) [%]	remaining binding at 1 µM (CSNK2A1) [%]	remaining binding at 1 µM (RET(V804M)) [%]	remaining binding at 1 µM (INSR) [%]	remaining binding at 1 µM (MAST1) [%]	remaining binding at 1 µM (MEK4) [%]	remaining binding at 1 µM (S6K1) [%]	remaining binding at 1 µM (SgK110) [%]	remaining binding at 1 µM [3] [%]	remaining binding at 1 µM (PIM1) [%]	remaining binding at 1 µM (AKT3) [%]	remaining binding at 1 µM (TRKB) [%]	remaining binding at 1 µM (KIT(A829P)) [%]	remaining binding at 1 µM (EGFR(L858R)) [%]	further results
CCNc1cc(Nc2ccc(C(=O)N3CCC(N4CCOCC4)CC3)cc2OC)nc2[nH]cc(C#N)c12 [Example 18, 4-(ethylamino)-6-((2-methoxy-4-(4-morpholinopiperidine-1-carbonyl)phenyl)amino)-1H-pyrrolo[2,3-b]pyridine-3-carbonitrile]	78	92	89	63	73	92	79	83	99	36	93	0	70	100	64	59	96	100	99	100	remaining binding at 1 µM (GRK1): 81%; remaining binding at 1 µM (STK39): 26%; remaining binding at 1 µM (SRPK1): 89%; remaining binding at 1 µM (MARK3): 100%; remaining binding at 1 µM (FER): 62%; remaining binding at 1 µM [4]: 96%; remaining binding at 1 µM (KIT(V559D)): 33%; remaining binding at 1 µM (ERBB2): 99%; remaining binding at 1 µM (SRPK3): 96%; remaining binding at 1 µM (GRK2): 71%; remaining binding at 1 µM (AURKC): 92%; remaining binding at 1 µM (EPHA5): 99%; remaining binding at 1 µM (JNK2): 0.1%; remaining binding at 1 µM (DRAK1): 56%; remaining binding at 1 µM (ERK1): 100%; remaining binding at 1 µM (GRK7): 96%; remaining binding at 1 µM (DDR1): 98%; remaining binding at 1 µM (MAP4K5): 99%
CCNc1cc(Nc2ccc(C(=O)N3CCC(N4CCOCC4)CC3)cc2OC)nc2[nH]cc(C(F)(F)F)c12 [Example 57, (4-((4-(ethylamino)-3-(trifluoromethyl)-1H-pyrrolo[2,3-b]pyridin-6-yl)amino)-3-methoxyphenyl) (4-morpholinopiperidin-1-yl)methanone]	77	99	68	95	76	100	100	100	95	48	66	98	100	96	77	94	96	100	100	100	remaining binding at 1 µM (GRK1): 94%; remaining binding at 1 µM (STK39): 43%; remaining binding at 1 µM (SRPK1): 85%; remaining binding at 1 µM (MARK3): 92%; remaining binding at 1 µM (FER): 67%; remaining binding at 1 µM [4]: 100%; remaining binding at 1 µM (KIT(V559D)): 77%; remaining binding at 1 µM (ERBB2): 73%; remaining binding at 1 µM (SRPK3): 100%; remaining binding at 1 µM (GRK2): 95%; remaining binding at 1 µM (AURKC): 95%; remaining binding at 1 µM (EPHA5): 85%; remaining binding at 1 µM (JNK2): 52%; remaining binding at 1 µM (DRAK1): 67%; remaining binding at 1 µM (ERK1): 98%; remaining binding at 1 µM (GRK7): 84%; remaining binding at 1 µM (DDR1): 98%; remaining binding at 1 µM (MAP4K5): 100%
